# Source: US7763596B2, “Selective glucocorticoid receptor agonists” (The University of Manchester, priority 2000, dated 2010)
# Assays:
# Type in all cases: cell-based
# [1] = target: T1, GR ligand binding domain / SRC-1 (Homo sapiens, UniProt P04150); experiment: SRC-1 association assay by mammalian two-hybrid analysis; conditions: for SRC-1 recruitment at the highest concentration tested: 100 nM
# T1 construct: expressed in transfected cells
# T1 sequence (P04150 524-758 limits assumed): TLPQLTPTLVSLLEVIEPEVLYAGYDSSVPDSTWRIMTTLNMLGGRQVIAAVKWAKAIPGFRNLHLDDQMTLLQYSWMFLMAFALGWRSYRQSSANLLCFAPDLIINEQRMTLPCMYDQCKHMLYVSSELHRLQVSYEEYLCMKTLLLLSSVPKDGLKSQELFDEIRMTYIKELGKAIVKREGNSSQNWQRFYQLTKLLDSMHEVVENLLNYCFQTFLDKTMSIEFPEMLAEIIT
# Description: SRC-1 is an important co-activator of GR action that associates with the GR in a ligand dependant manner. The ability of SRC-1 to associate with the GR in this manner can be used as a measure of potency of ligand mediated transactivation. To perform this assay plasmids that generated VP16-GR ligand binding domain (LBD) and GAL4-SRC-1 fusion proteins and a GAL4 binding luciferase reporter gene construct were transfected into in a cell line lacking GR and deficient in endogenous SRC-1. The GAL4-SRC-1 fusion protein could bind to specific sites upstream of the luciferase reporter gene construct. If the SRC-1 fusion protein associated with the ligand bound VP16-GRLBD fusion protein then the VP-16 activation domain augmented the luciferase gene expression.
# endogenous GR = target: T2, endogenous GR (Homo sapiens, UniProt P04150); experiment: Transrepression assay using endogenous GR in the A549 lung epithelial cell line (TNF, NRE luciferase); conditions: compound G at 1, 10, 100 and 500 nM
# T2 construct: This cell line contains functional endogenous GR; endogenous in cells; host or cells: A549
# T2 sequence (P04150 1-777): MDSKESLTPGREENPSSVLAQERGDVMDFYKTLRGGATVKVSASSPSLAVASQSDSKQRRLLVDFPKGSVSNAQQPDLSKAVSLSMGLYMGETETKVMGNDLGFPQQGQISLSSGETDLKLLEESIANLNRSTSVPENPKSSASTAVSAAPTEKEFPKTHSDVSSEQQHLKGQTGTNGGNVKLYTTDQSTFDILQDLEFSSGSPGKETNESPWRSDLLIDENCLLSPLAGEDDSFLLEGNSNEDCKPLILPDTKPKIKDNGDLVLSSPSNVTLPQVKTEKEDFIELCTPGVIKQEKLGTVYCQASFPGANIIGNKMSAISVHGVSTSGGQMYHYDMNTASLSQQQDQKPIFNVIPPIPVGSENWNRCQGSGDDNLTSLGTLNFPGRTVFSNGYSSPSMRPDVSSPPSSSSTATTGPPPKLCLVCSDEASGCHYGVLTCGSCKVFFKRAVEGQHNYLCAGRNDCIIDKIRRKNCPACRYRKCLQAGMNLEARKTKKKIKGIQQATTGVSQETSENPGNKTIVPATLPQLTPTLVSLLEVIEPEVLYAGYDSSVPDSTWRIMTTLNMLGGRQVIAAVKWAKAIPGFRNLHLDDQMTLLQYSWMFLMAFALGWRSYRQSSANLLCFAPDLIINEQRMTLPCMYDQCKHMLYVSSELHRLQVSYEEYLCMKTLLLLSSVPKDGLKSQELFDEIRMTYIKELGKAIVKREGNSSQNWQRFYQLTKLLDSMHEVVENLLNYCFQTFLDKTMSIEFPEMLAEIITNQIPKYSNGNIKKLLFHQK
# Description: The A549 cell line (ECACC:86012804) is derived from the human lung epithelial cells from a carcinoma. This cell line contains functional endogenous GR and is stimulated by Tumour Necrosis Factor (TNF) to produce IL-8.
# In this assay TNF was used to stimulate NFkB activity in a cell line that expressed endogenous GR. The ability of NFkB to activate an NRE “driving” a luciferase reporter gene could then be repressed by GR in a ligand dependent manner and, therefore, used to measure transrepression.
# COS7 cells were transfected with 3 μg NRE-Luc per 10 cm tissue culture dish. The cells were plated out in to 24 well plates after transfection and left for 18 hours to recover before the steroids of FIGS. 1 and 2 were added. Next TNF was added to the samples after 3 hours incubation with the steroids and after another 15 hours the cells were lysed and a luciferase assay was performed.
# GFP tagged GR = target: T3, GFP tagged GR (Homo sapiens, UniProt P04150); experiment: Nuclear translocation using GFP tagged GR and fluorescent microscopy; conditions: COS 7 cells, 100 nM, 3 hours
# T3 construct: expressed in transfected cells; host or cells: COS 7
# T3 sequence (P04150 1-777): T2 sequence (P04150 1-777)
# Description: The un-liganded GR is present in the cytoplasm of cells in association with heat shock proteins (HSPs). The binding of an agonist ligand to the GR causes dissociation from the HSPs and translocation to the nucleus. A type I antagonist ligand can bind to the GR but cannot translocate to the nucleus. A type II antagonist ligand can bind to the GR, translocate to the nucleus and bind to DNA but cannot activate gene transcription. Therefore, the ability of a putative ligand to translocate the GR helps to determine its status as an agonist or antagonist. COS 7 cells were transfected with 5 μg of a green fluorescent protein (GFP) tagged GR expression vector. After transfection, these cells were split into 6 well plates with sterile microscope cover slips placed at the bottom of each well. The cells were allowed to recover for 18 hours and then the medium was removed, the cells were washed three times with sterile phosphate buffered saline (PBS) and new medium was added containing charcoal stripped FCS in place of normal FCS. The cells were incubated for 18 hours and then the steroids of FIGS. 1 and 2A were added to make a final concentration of 100 nM. The cells were incubated for a further 3 hours and then the medium was aspirated and the cells were fixed to the glass coverslips by adding ice cold methanol and incubating at −20° C. for 30 mins. The coverslips with the transfected cells fixed to them were mounted on slides and the cellular localisation of the GFP tagged GR was analysed by fluorescent microscopy using an Axioplan 2 microscope (Zeiss, Oberkochen, Germany) and KS300 v3.0 analysis software (Zeiss).
Compound,repression of TNF activation of A549 cells (NRE reporter gene) (endogenous GR),nuclear translocation of the GFP tagged glucocorticoid receptor (GFP tagged GR),SRC-1 recruitment at the highest concentration tested [1],further results
CC1CC2C3CCC4=CC(=O)C=CC4(C)C3(F)C(O)CC2(C)C12OC(C)(C)OCC2=O (stereo not drawn) [Compound A],exhibited transrepression,caused nuclear localisation,–,"SRC-1 recruitment, sub-maximal response ([1]; 1, 10 and 100 nM, relative to dexamethasone): ~50%"
Cc1ccc(NC(=O)C2(O)C(C)CC3C4CCC5=CC(=O)C=CC5(C)C4(F)C(O)CC32C)cc1 (stereo not drawn) [Compound O],–,failed to cause translocation,–,–
CCCNC(=O)C1(O)C(C)CC2C3CCC4=CC(=O)C=CC4(C)C3(F)C(O)CC21C (stereo not drawn) [Compound G],repressed at least as well as dexamethasone and also had a “left shifted” response with greater maximal repression,–,no SRC-1 recruitment,transactivation as measured by SRC-1 recruitment ([1]; 1 and 10 nmolar): no transactivation as measured by SRC-1 recruitment
CC1CC2C3CCC4=CC(=O)C=CC4(C)C3(F)C(O)CC2(C)C1(O)C(=O)COC(=O)c1ccc(F)cc1 (stereo not drawn) [Compound D],exhibited transrepression,caused nuclear localisation,–,"SRC-1 recruitment compared with dexamethasone ([1]; 1, 10 and 100 nM): recruited SRC-1 to the same extent as dexamethasone"
CCCOC(=O)C1(O)C(C)CC2C3CCC4=CC(=O)C=CC4(C)C3(F)C(O)CC21C (stereo not drawn) [R],–,–,significant response,–
CCCCCCNC(=O)OCC(=O)C1(O)C(C)CC2C3CCC4=CC(=O)C=CC4(C)C3(F)C(O)CC21C (stereo not drawn) [Compound T],–,–,significant response,–
